Experimental data as given in patent US11051515B2, “3-acyl-benzamides and their use as herbicides” (Bayer Aktiengesellschaft, priority 2017, dated 2021).

Assays:
MATIN [1] = test: Post-emergence action against MATIN; format: in vivo, Matricaria inodora; details: post-emergence, dosage 80 g/ha, visual assessment about 3 weeks after treatment vs untreated controls
In short: (§1)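 Weeds grown in sandy loam in greenhouse, treated at one-leaf stage (2–3 weeks after sowing) with WP or EC formulations sprayed as aqueous suspension/emulsion at 600 to […] water with 0.2% wetting agent. Visual rating after about 3 weeks versus untreated controls, as % herbicidal action (100% = plants dead, 0% = like control).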

AMARE [2] = test: Pre-emergence action against AMARE; format: in vivo, Amaranthus retroflexus; details: pre-emergence, dosage 320 g/ha, scored visually after 3 weeks vs untreated controls
In short: (§2)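 Seeds sown in sandy loam in wood-fiber pots and covered with soil. Greenhouse growth; visual damage scored after 3 weeks versus untreated controls (100% = dead, 0% = like control).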

POLCO = test: Post-emergence action against POLCO; format: in vivo, Polygonum convolvulus; details: post-emergence, dosage 80 g/ha
In short: as §1

LOLMU [3] = test: Post-emergence action against LOLMU; format: in vivo, Lolium multiflorum; details: dosage 80 g/ha, visual assessment about 3 weeks after treatment vs untreated controls
In short: as §1

ECHCG [4] = test: Post-emergence action against ECHCG; format: in vivo, Echinochloa crus-galli; details: post-emergence, dosage 80 g/ha, visual assessment about 3 weeks after treatment vs untreated controls
In short: as §1

STEME [5] = test: Post-emergence action against STEME; format: in vivo, Stellaria media; details: post-emergence, dosage 80 g/ha
In short: as §1

AMARE [6] = test: Post-emergence action against AMARE; format: in vivo, Amaranthus retroflexus; details: post-emergence, dosage 80 g/ha, visual assessment about 3 weeks after treatment vs untreated controls
In short: as §1

CYPES [7] = test: Post-emergence action against CYPES; format: in vivo, Cyperus esculentus; details: post-emergence, dosage 80 g/ha, visual assessment about 3 weeks after treatment vs untreated controls
In short: as §1

VIOTR [8] = test: Post-emergence action against VIOTR; format: in vivo, Viola tricolor; details: post-emergence, dosage 80 g/ha
In short: as §1

ABUTH [9] = test: Post-emergence action against ABUTH; format: in vivo, Abutilon theophrasti; details: post-emergence, dosage 80 g/ha, visual assessment about 3 weeks after treatment vs untreated controls
In short: as §1

AVEFA [10] = test: Pre-emergence action against AVEFA; format: in vivo, Avena fatua; details: dosage 320 g/ha, scored visually after 3 weeks vs untreated controls
In short: as §2

MATIN [11] = test: Pre-emergence action against MATIN; format: in vivo, Matricaria inodora; details: Dosage 320 g/ha, pre-emergence
In short: as §2

CYPES [12] = test: Pre-emergence action against CYPES; format: in vivo, Cyperus esculentus; details: pre-emergence, dosage 320 g/ha, scored visually after 3 weeks vs untreated controls
In short: as §2

ABUTH [13] = test: Pre-emergence action against ABUTH; format: in vivo, Abutilon theophrasti; details: pre-emergence, dosage 320 g/ha, scored visually after 3 weeks vs untreated controls
In short: as §2

SETVI [14] = test: Post-emergence action against SETVI; format: in vivo, Setaria viridis; details: post-emergence, dosage 80 g/ha, visual assessment about 3 weeks after treatment vs untreated controls
In short: as §1

VIOTR [15] = test: Pre-emergence action against VIOTR; format: in vivo, Viola tricolor; details: Dosage 320 g/ha, pre-emergence
In short: as §2

ALOMY [16] = test: Pre-emergence action against ALOMY; format: in vivo, Alopecurus myosuroides; details: dosage 320 g/ha; pre-emergence; scored visually after 3 weeks vs untreated controls; 100% = plants have died, 0% = like control plants
In short: as §2

VERPE [17] = test: Pre-emergence action against VERPE; format: in vivo, Veronica persica; details: Dosage 320 g/ha, pre-emergence
In short: as §2

SETVI [18] = test: Pre-emergence action against SETVI; format: in vivo, Setaria viridis; details: pre-emergence, dosage 320 g/ha, scored visually after 3 weeks vs untreated controls
In short: as §2

ALOMY [19] = test: Post-emergence action against ALOMY; format: in vivo, Alopecurus myosuroides; details: Dosage 80 g/ha, post-emergence
In short: as §1

LOLMU [20] = test: Pre-emergence action against LOLMU; format: in vivo, Lolium multiflorum; details: dosage 320 g/ha, scored visually after 3 weeks vs untreated controls
In short: as §2

VERPE [21] = test: Post-emergence action against VERPE; format: in vivo, Veronica persica; details: dosage 80 g/ha
In short: as §1

AVEFA [22] = test: Post-emergence action against AVEFA; format: in vivo, Avena fatua; details: post-emergence, dosage 80 g/ha, visual assessment about 3 weeks after treatment vs untreated controls
In short: as §1

ECHCG [23] = test: Pre-emergence action against ECHCG; format: in vivo, Echinochloa crus-galli; details: pre-emergence, dosage 320 g/ha, scored visually after 3 weeks vs untreated controls
In short: as §2

PHBPU [24] = test: Post-emergence action against PHBPU; format: in vivo, Pharbitis purpurea; details: post-emergence, dosage 80 g/ha
In short: as §1

PHBPU [25] = test: Pre-emergence action against PHBPU; format: in vivo, Pharbitis purpurea; details: Dosage 320 g/ha, pre-emergence
In short: as §2

STEME [26] = test: Pre-emergence action against STEME; format: in vivo, Stellaria media; details: Dosage 320 g/ha, pre-emergence
In short: as §2

SMILES: CCC(=O)c1c(C(F)(F)F)ccc(C(=O)Nc2nnnn2CC)c1C [2-15]
- Post-emergence action against MATIN (herbicidal action in percent) (MATIN [1]): 90%
- Pre-emergence action against AMARE (herbicidal activity) (AMARE [2]): 100%
- Post-emergence action against POLCO (POLCO): 100
- Post-emergence action against LOLMU (herbicidal action in percent) (LOLMU [3]): 90%
- Post-emergence action against ECHCG (herbicidal action in percent) (ECHCG [4]): 90%
- Post-emergence action against STEME (STEME [5]): 100
- Post-emergence action against AMARE (herbicidal action in percent) (AMARE [6]): 90%
- Post-emergence action against CYPES (herbicidal action in percent) (CYPES [7]): 90%
- Post-emergence action against VIOTR (VIOTR [8]): 100
- Post-emergence action against ABUTH (herbicidal action in percent) (ABUTH [9]): 100%
- Pre-emergence action against AVEFA (herbicidal activity) (AVEFA [10]): 100%
- Pre-emergence action against MATIN (MATIN [11]): 100%
- Pre-emergence action against CYPES (herbicidal activity) (CYPES [12]): 90%
- Pre-emergence action against ABUTH (herbicidal activity) (ABUTH [13]): 100%
- Post-emergence action against SETVI (herbicidal action in percent) (SETVI [14]): 100%
- Pre-emergence action against VIOTR (VIOTR [15]): 100%
- Pre-emergence action against ALOMY (herbicidal activity in percent) (ALOMY [16]): 100%
- Pre-emergence action against VERPE (VERPE [17]): 100%
- SETVI (Table B8, pre-emergence herbicidal activity) (SETVI [18]): 100%
- Post-emergence action against ALOMY (ALOMY [19]): 100%
- Pre-emergence action against LOLMU (herbicidal activity) (LOLMU [20]): 100%
- Post-emergence action against VERPE (VERPE [21]): 90
- Post-emergence action against AVEFA (herbicidal action in percent) (AVEFA [22]): 80%
- Pre-emergence action against ECHCG (herbicidal activity) (ECHCG [23]): 100%
- Post-emergence action against PHBPU (PHBPU [24]): 80
- Pre-emergence action against PHBPU (PHBPU [25]): 80%
- Pre-emergence action against STEME (STEME [26]): 100%

SMILES: CCn1nnnc1NC(=O)c1ccc(S(C)(=O)=O)c(C(=O)C2CC2)c1Cl [2-129]
- Post-emergence action against MATIN (herbicidal action in percent) (MATIN [1]): 100%
- Pre-emergence action against AMARE (herbicidal activity) (AMARE [2]): 100%
- Post-emergence action against POLCO (POLCO): 100
- Post-emergence action against LOLMU (herbicidal action in percent) (LOLMU [3]): 90%
- Post-emergence action against ECHCG (herbicidal action in percent) (ECHCG [4]): 90%
- Post-emergence action against STEME (STEME [5]): 100
- Post-emergence action against AMARE (herbicidal action in percent) (AMARE [6]): 100%
- Post-emergence action against CYPES (herbicidal action in percent) (CYPES [7]): 80%
- Post-emergence action against VIOTR (VIOTR [8]): 100
- Post-emergence action against ABUTH (herbicidal action in percent) (ABUTH [9]): 80%
- Pre-emergence action against AVEFA (herbicidal activity) (AVEFA [10]): 100%
- Pre-emergence action against MATIN (MATIN [11]): 100%
- Pre-emergence action against CYPES (herbicidal activity) (CYPES [12]): 100%
- Pre-emergence action against ABUTH (herbicidal activity) (ABUTH [13]): 100%
- Post-emergence action against SETVI (herbicidal action in percent) (SETVI [14]): 100%
- Pre-emergence action against VIOTR (VIOTR [15]): 100%
- Pre-emergence action against ALOMY (herbicidal activity in percent) (ALOMY [16]): 90%
- Pre-emergence action against VERPE (VERPE [17]): 100%
- SETVI (Table B8, pre-emergence herbicidal activity) (SETVI [18]): 100%
- Post-emergence action against ALOMY (ALOMY [19]): 100%
- Pre-emergence action against LOLMU (herbicidal activity) (LOLMU [20]): 90%
- Post-emergence action against VERPE (VERPE [21]): 100
- Post-emergence action against AVEFA (herbicidal action in percent) (AVEFA [22]): 100%
- Pre-emergence action against ECHCG (herbicidal activity) (ECHCG [23]): 100%
- Post-emergence action against PHBPU (PHBPU [24]): 100
- Pre-emergence action against STEME (STEME [26]): 100%
